Assay results reported in patent US20060069132A1, “Azolecarboxamide herbicides” (priority 2004, published 2006).

Columns and labels:
[1] = system: redroot pigweed; assay: Test A pre-/postemergence herbicide test; assay type: in vivo, Amaranthus retroflexus
Outline: (§1)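 Visual injury scores on a 0–100 scale (100 = complete control) taken about ten days post-treatment in greenhouse against untreated controls; dash means no result. Treatments: preemergence soil spray and postemergence spray to runoff on one- to two-leaf plants 2 to 10 cm tall, surfactant-containing formulation.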

[2] = system: giant foxtail; assay: Test B pre-/postemergence herbicide test; assay type: in vivo, Setaria faberi
Outline: (§2)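 Plants compared with untreated controls 13–15 days post-treatment and given a visual 0–100 injury score. Applications: preemergence to seeds; postemergence at 1- to 4-leaf (2–18 cm); paddy species flooded, 2-leaf stage. Vehicle non-phytotoxic, surfactant included.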

[3] = system: velvetleaf; assay: Test B pre-/postemergence herbicide test; assay type: in vivo, Abutilon theophrasti
Outline: as §2

[4] = system: rice; assay: Test B flooded paddy test; assay type: in vivo, Oryza sativa; settings: 1000 g ai/ha, scale 0 to 100 (0 no effect, 100 complete control)
Outline: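 Formulated test chemicals went onto postemergence plants measuring 2 to 18 cm, at one to four leaves. For the paddy assay, species had reached two leaves. Scoring took place 13–15 days later by eye, relative to untreated plants, using 0 for no effect up to 100 for full control.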

[5] = system: large crabgrass; assay: Test B pre-/postemergence herbicide test; assay type: in vivo, Digitaria sanguinalis
Outline: as §2

[6] = system: pigweed; assay: Test B pre-/postemergence herbicide test; assay type: in vivo, Amaranthus retroflexus
Outline: as §2

[7] = system: velvetleaf; assay: Test A pre-/postemergence herbicide test; assay type: in vivo, Abutilon theophrasti
Outline: as §1

[8] = system: barnyardgrass; assay: Test A pre-/postemergence herbicide test; assay type: in vivo, Echinochloa crus-galli
Outline: as §1

[9] = system: barnyardgrass; assay: Test B flooded paddy test; assay type: in vivo, Echinochloa crus-galli; settings: 1000 g ai/ha, scale 0 to 100 (0 no effect, 100 complete control)
Outline: (§3)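 Visual control ratings, 0–100 versus untreated controls, taken after 13 to 15 days in the greenhouse. Blackgrass received a postemergence spray at the 1- to 4-leaf stage (2–18 cm); ducksalad, umbrella sedge and barnyardgrass were flooded-paddy treated at 2 leaves.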

[10] = system: Surinam grass; assay: Test B pre-/postemergence herbicide test; assay type: in vivo, Urochloa decumbens
Outline: as §2

[11] = system: barnyardgrass; assay: Test B pre-/postemergence herbicide test; assay type: in vivo, Echinochloa crus-galli
Outline: (§4)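 Response was scored visually 13 to 15 days after treatment against untreated greenhouse controls, 0 meaning no effect and 100 complete control. Formulations (solvent mixture plus surfactant) went onto soil after planting, onto foliage of 1- to 4-leaf plants, and onto 2-leaf plants in a flooded paddy set including rice and barnyardgrass.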

[12] = system: large crabgrass; assay: Test A pre-/postemergence herbicide test; assay type: in vivo, Digitaria sanguinalis
Outline: as §1

[13] = system: wild oat; assay: Test B postemergence herbicide test; assay type: in vivo, Avena fatua
Outline: (§5)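 Treated at 2-leaf (paddy) or 1–4-leaf, 2–18 cm (postemergence); greenhouse 13–15 d; visual score vs control, 0 none to 100 complete control; dash = not tested.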

[14] = system: giant foxtail; assay: Test A pre-/postemergence herbicide test; assay type: in vivo, Setaria faberi
Outline: as §1

[15] = system: morningglory; assay: Test A pre-/postemergence herbicide test; assay type: in vivo, Ipomoea spp.
Outline: as §1

[16] = system: morningglory; assay: Test B pre-/postemergence herbicide test; assay type: in vivo, Ipomoea coccinea
Outline: as §4

[17] = system: ducksalad; assay: Test B flooded paddy test; assay type: in vivo, Heteranthera limosa; settings: 1000 g ai/ha, scale 0 to 100 (0 no effect, 100 complete control)
Outline: as §3

[18] = system: small flower umbrella sedge; assay: Test B flooded paddy test; assay type: in vivo, Cyperus difformis; settings: 1000 g ai/ha, scale 0 to 100 (0 no effect, 100 complete control)
Outline: as §3

[19] = system: cocklebur; assay: Test B pre-/postemergence herbicide test; assay type: in vivo, Xanthium strumarium
Outline: as §4

[20] = system: corn; assay: Test B pre-/postemergence herbicide test; assay type: in vivo, Zea mays
Outline: as §2

[21] = system: wheat; assay: Test B postemergence herbicide test; assay type: in vivo, Triticum aestivum; design: key to Wheat plant response rating: 0 = no effect, 100 = complete control
Outline: as §5

[22] = system: blackgrass; assay: Test B postemergence herbicide test; assay type: in vivo, Alopecurus myosuroides
Outline: as §3

[23] = system: lambsquarters; assay: Test B pre-/postemergence herbicide test; assay type: in vivo, Chenopodium album
Outline: as §2

[24] = Postemergence, 500 g ai/ha, 0 to 100 scale, 0 no effect, 100 complete control
[25] = Postemergence, 2000 g ai/ha, 0 to 100 scale, 0 no effect, 100 complete control
[26] = Preemergence, 2000 g ai/ha, visual rating, 0 to 100 scale (0 no effect, 100 complete control)
[27] = preemergence, 500 g ai/ha, visual injury, 0 to 100 scale (0 no effect, 100 complete control)
[28] = 125 g ai/ha; 0 = no effect, 100 = complete control; preemergence
[29] = 500 g ai/ha; visual rating 0-100, 0 no effect, 100 complete control; preemergence
[30] = postemergence, 125 g ai/ha; visual rating, scale 0 (no effect) to 100 (complete control)
[31] = postemergence, 500 g ai/ha; visual rating, scale 0 (no effect) to 100 (complete control)
[32] = Postemergence, 125 g ai/ha, 0 to 100 scale, 0 no effect, 100 complete control
[33] = preemergence, 125 g ai/ha, visual injury, 0 to 100 scale (0 no effect, 100 complete control)
[34] = 125 g ai/ha; visual rating, scale 0 (no effect) to 100 (complete control); postemergence
[35] = 500 g ai/ha; visual rating, 0 = no effect, 100 = complete control; preemergence
[36] = postemergence, 500 g ai/ha; scale 0 to 100, 0 is no effect, 100 is complete control

## CC(=O)c1cccc(NC(=O)c2sc(C(C)(C)C)nc2C)c1 [Compound 196]
[1]; [24]
  Pigweed plant response rating: 0
[1]; [25]
  Plant response rating, Pigweed: 0
[1]; [26]
  Pigweed plant response rating: 15
[1]; [27]
  Pigweed plant response rating: 0
[2]; [28]
  Foxtail, Giant plant response rating (0 to 100 scale): 0
[2]; [29]
  Plant response rating, Foxtail, Giant: 0
[2]; [30]
  Foxtail, Giant plant response rating: 0
[2]; [31]
  Foxtail, Giant plant response rating: 0
[3]; [28]
  Velvetleaf plant response rating (0 to 100 scale): 0
[3]; [29]
  Plant response rating, Velvetleaf: 20
[3]; [30]
  Velvetleaf plant response rating: 0
[3]; [31]
  Velvetleaf plant response rating: 0
[4]; visual rating, 13 to 15 days
  Rice plant response rating: 0
[5]; [28]
  Crabgrass, Large plant response rating (0 to 100 scale): 0
[5]; [29]
  Plant response rating, Crabgrass, Large: 100
[5]; [30]
  Crabgrass, Large plant response rating: 30
[5]; [31]
  Crabgrass, Large plant response rating: 30
[6]; [28]
  Pigweed plant response rating (0 to 100 scale): 0
[6]; [29]
  Plant response rating, Pigweed: 0
[6]; [30]
  Pigweed plant response rating: 10
[6]; [31]
  Pigweed plant response rating: 30
[7]; [24]
  Velvetleaf plant response rating: 0
[7]; [25]
  Plant response rating, Velvetleaf: 0
[7]; [26]
  Velvetleaf plant response rating: 0
[7]; [27]
  Velvetleaf plant response rating: 0
[8]; [24]
  Barnyardgrass plant response rating: 0
[8]; [25]
  Plant response rating, Barnyardgrass: 30
[8]; [26]
  Barnyardgrass plant response rating: 55
[8]; [27]
  Barnyardgrass plant response rating: 15
[9]; visual rating, 13 to 15 days
  Barnyardgrass plant response rating: 20
[10]; [28]
  Surinam Grass plant response rating (0 to 100 scale): 0
[10]; [29]
  Plant response rating, Surinam Grass: 0
[10]; [30]
  Surinam Grass plant response rating: 0
[10]; [31]
  Surinam Grass plant response rating: 40
[11]; [28]
  Barnyardgrass plant response rating (0 to 100 scale): 0
[11]; [29]
  Plant response rating, Barnyardgrass: 40
[11]; [30]
  Barnyardgrass plant response rating: 0
[11]; [31]
  Barnyardgrass plant response rating: 30
[12]; [24]
  Crabgrass, Large plant response rating: 0
[12]; [25]
  Plant response rating, Crabgrass, Large: 0
[12]; [26]
  Crabgrass, Large plant response rating: 50
[12]; [27]
  Crabgrass, Large plant response rating: 25
[13]; [30]
  Oat, Wild plant response rating: 0
[13]; [31]
  Oat, Wild plant response rating: 0
[14]; [24]
  Foxtail, Giant plant response rating: 0
[14]; [25]
  Plant response rating, Foxtail, Giant: 0
[14]; [26]
  Foxtail, Giant plant response rating: 20
[14]; [27]
  Foxtail, Giant plant response rating: 0
[15]; [24]
  Morningglory plant response rating: 5
[15]; [25]
  Plant response rating, Morningglory: 0
[15]; [26]
  Morningglory plant response rating: 10
[15]; [27]
  Morningglory plant response rating: 0
[16]; [28]
  Morningglory plant response rating (0 to 100 scale): 0
[16]; [29]
  Plant response rating, Morningglory: 0
[16]; [30]
  Morningglory plant response rating: 0
[16]; [31]
  Morningglory plant response rating: 0
[17]; visual rating, 13 to 15 days
  Ducksalad plant response rating: 30
[18]; visual rating, 13 to 15 days
  Sedge, Umbrella plant response rating: 30
[19]; [28]
  Cocklebur plant response rating (0 to 100 scale): 0
[19]; [29]
  Plant response rating, Cocklebur: 0
[19]; [30]
  Cocklebur plant response rating: 0
[19]; [31]
  Cocklebur plant response rating: 20
[20]; [28]
  Corn plant response rating (0 to 100 scale): 0
[20]; [29]
  Plant response rating, Corn: 0
[20]; [30]
  Corn plant response rating: 0
[20]; [31]
  Corn plant response rating: 10
[21]; [30]
  Wheat plant response rating: 0
[21]; [31]
  Wheat plant response rating: 0
[22]; [30]
  Blackgrass plant response rating: 0
[22]; [31]
  Blackgrass plant response rating: 0
[23]; [28]
  Lambsquarters plant response rating (0 to 100 scale): 0
[23]; [29]
  Plant response rating, Lambsquarters: 0
[23]; [30]
  Lambsquarters plant response rating: 0
[23]; [31]
  Lambsquarters plant response rating: 30

## CC(=NO)c1cccc(NC(=O)c2cc(C(C)(C)C)n[nH]2)c1 [Compound 311]
[1]; [32]
  Pigweed plant response rating: 0
[1]; [24]
  Pigweed plant response rating: 0
[1]; [33]
  Pigweed plant response rating: 0
[1]; [27]
  Pigweed plant response rating: 0
[2]; [28]
  Foxtail, Giant plant response rating (0 to 100 scale): 0
[2]; [34]
  Foxtail, Giant plant response rating: 0
[2]; [35]
  Plant response rating, Foxtail, Giant: 0
[2]; [36]
  Foxtail, Giant plant response rating: 0
[3]; [34]
  Velvetleaf plant response rating: 0
[3]; [35]
  Plant response rating, Velvetleaf: 0
[3]; [36]
  Velvetleaf plant response rating: 0
[4]
  Rice plant response rating: 60
[5]; [28]
  Crabgrass, Large plant response rating (0 to 100 scale): 0
[5]; [34]
  Crabgrass, Large plant response rating: 0
[5]; [35]
  Plant response rating, Crabgrass, Large: 0
[5]; [36]
  Crabgrass, Large plant response rating: 0
[6]; [28]
  Pigweed plant response rating (0 to 100 scale): 0
[6]; [34]
  Pigweed plant response rating: 0
[6]; [35]
  Plant response rating, Pigweed: 0
[6]; [36]
  Pigweed plant response rating: 0
[7]; [32]
  Velvetleaf plant response rating: 0
[7]; [24]
  Velvetleaf plant response rating: 10
[7]; [33]
  Velvetleaf plant response rating: 0
[7]; [27]
  Velvetleaf plant response rating: 0
[8]; [32]
  Barnyardgrass plant response rating: 0
[8]; [24]
  Barnyardgrass plant response rating: 10
[8]; [33]
  Barnyardgrass plant response rating: 0
[8]; [27]
  Barnyardgrass plant response rating: 0
[9]
  Barnyardgrass plant response rating: 50
[10]; [28]
  Surinam Grass plant response rating (0 to 100 scale): 0
[10]; [34]
  Surinam Grass plant response rating: 0
[10]; [35]
  Plant response rating, Surinam Grass: 0
[10]; [36]
  Surinam Grass plant response rating: 0
[11]; [28]
  Barnyardgrass plant response rating (0 to 100 scale): 0
[11]; [34]
  Barnyardgrass plant response rating: 0
[11]; [35]
  Plant response rating, Barnyardgrass: 0
[11]; [36]
  Barnyardgrass plant response rating: 0
[12]; [32]
  Crabgrass, Large plant response rating: 0
[12]; [24]
  Crabgrass, Large plant response rating: 10
[12]; [33]
  Crabgrass, Large plant response rating: 0
[12]; [27]
  Crabgrass, Large plant response rating: 0
[13]; [34]
  Oat, Wild plant response rating: 0
[13]; [36]
  Oat, Wild plant response rating: 0
[14]; [32]
  Foxtail, Giant plant response rating: 0
[14]; [24]
  Foxtail, Giant plant response rating: 0
[14]; [33]
  Foxtail, Giant plant response rating: 0
[14]; [27]
  Foxtail, Giant plant response rating: 0
[15]; [32]
  Morningglory plant response rating: 0
[15]; [24]
  Morningglory plant response rating: 0
[15]; [33]
  Morningglory plant response rating: 0
[15]; [27]
  Morningglory plant response rating: 0
[16]; [28]
  Morningglory plant response rating (0 to 100 scale): 0
[16]; [34]
  Morningglory plant response rating: 0
[16]; [35]
  Plant response rating, Morningglory: 0
[16]; [36]
  Morningglory plant response rating: 0
[17]
  Ducksalad plant response rating: 60
[18]
  Sedge, Umbrella plant response rating: 30
[19]; [28]
  Cocklebur plant response rating (0 to 100 scale): 0
[19]; [34]
  Cocklebur plant response rating: 0
[19]; [35]
  Plant response rating, Cocklebur: 0
[19]; [36]
  Cocklebur plant response rating: 0
[20]; [28]
  Corn plant response rating (0 to 100 scale): 0
[20]; [34]
  Corn plant response rating: 0
[20]; [35]
  Plant response rating, Corn: 0
[20]; [36]
  Corn plant response rating: 0
[21]; [34]
  Wheat plant response rating: 0
[21]; [36]
  Wheat plant response rating: 0
[22]; [34]
  Blackgrass plant response rating: 0
[22]; [36]
  Blackgrass plant response rating: 0
[23]; [28]
  Lambsquarters plant response rating (0 to 100 scale): 0
[23]; [34]
  Lambsquarters plant response rating: 0
[23]; [35]
  Plant response rating, Lambsquarters: 0
[23]; [36]
  Lambsquarters plant response rating: 0
